Assay type in all cases: biochemical
Assay [1] concerns the target T1, cathepsin K (Homo sapiens, UniProt P43235).
T1 sequence (P43235 115-329): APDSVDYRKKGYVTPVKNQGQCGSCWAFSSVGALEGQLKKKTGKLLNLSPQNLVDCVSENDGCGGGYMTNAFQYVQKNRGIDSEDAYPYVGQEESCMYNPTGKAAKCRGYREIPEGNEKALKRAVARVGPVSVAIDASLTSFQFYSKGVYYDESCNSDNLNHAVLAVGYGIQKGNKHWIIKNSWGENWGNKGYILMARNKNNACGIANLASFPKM
Put plainly: Measurement of cathepsin K inhibitory activity. To be noted: Dixon plot, pH 5.5, 37° C. The protocol:
(i) Measurement of Cathepsin K Inhibitory Activity
65 μL of Cathepsin K enzyme reaction buffer (50 mmol/L of 2-(N-morpholino)ethanesulfonate, 2 mmol/L of ethylenediamine tetraacetate (EDTA) and 4 mmol/L of dithiothreitol (DTT) were mixed to adjust to pH 5.5), 5 μL of cysteine protease inhibitor solution of several concentrations, 20 μL of synthesized substrate (t-butyloxycarbonyl-L-alanyl-glycyl-L-prolyl-L-arginine-4-methyl-chromanyl-7-amide) solution of several concentrations and 10 μL of cathepsin K enzyme solution were mixed and the increase of fluorescence intensity when reacted at 37° C. was measured (λ ex (excitation wavelength)=355 nm, λ em (fluorescence wavelength)=460 nm). As to the substrate and the compound of the present invention, enzyme reactions were carried out in combination of several appropriate concentrations and Dixon plotting was prepared, to define the absolute value of X-coordinate of the intersection point of the graph as Ki value.

The target in assay [2] is cathepsin B (Homo sapiens, UniProt P07858). Put plainly: Measurement of cathepsin B inhibitory activity. The protocol: (ii) Measurement of Cathepsin B Inhibitory Activity
10 μL of Synthesized substrate (carbobenzoxy-L-arginyl-L-arginine-4-methyl-chromanyl-7-amide or carbobenzoxy-L-phenylalanyl-L-arginine-4-methyl-chromanyl-7-amide) solution of several concentrations, 10 μL of cysteine protease inhibitor solution of several concentrations, 70 μL of cathepsin B enzyme reaction buffer (mixture of 400 mmol/L in acetic acid, 4 mmol/L EDTA, 8 mmol/L DDT to adjust to pH 5.5) and 10 μL of cathepsin B enzyme solution were mixed and the increase of fluorescence intensity was measured (λ ex (excitation wavelength)=355 nm, μ em (fluorescence wavelength)=460 nm) when reacted at 37° C.
For example, the inhibitory activity of the compound of example 10 was 95% at 1 μM.

For assay [3], the target named is cathepsin S (Homo sapiens, UniProt P25774). Put plainly: Measurement of cathepsin S inhibitory activity. As for the experimental part: (iii) Measurement of Cathepsin S Inhibitory Activity
10 μL of synthesized substrate (carbobenzoxy-L-leucyl-L-leucyl-L-arguinine-4-methyl-chromanyl-7-amide) solution and 5 μL of cysteine protease inhibitor solution of several concentrations, 75 μL of cathepsin S enzyme reaction buffer (100 mmol/L of sodium phosphate, 2 mmol/L of EDTA, 2 mmol/L of DTT were mixed to adjust to pH 6.5) and 10 μL of cathepsin S enzyme solution were mixed and the increase of fluorescence intensity was measured (λ ex(excitation wavelength)=355 nm, λ em (fluorescence wavelength)=460 nm) when reacted at 37° C.
It was confirmed that the compound of the present invention of formula (I) has an inhibitory effect more than 50% at 10 μM. For example, the inhibitory activity of the compound of example 18 was 98% at 1 μM.

Assay [4] has as its target cathepsin L (Homo sapiens, UniProt P07711). Put plainly: Measurement of cathepsin L inhibitory activity. As for the experimental part:
(iv) Measurement of Cathepsin L Inhibitory Activity
5 μL of Synthesized substrate (carbobenzoxy-L-phenylalanyl-L-arguine-4-methyl-chromanyl-7-amide or L-prolyl-L-phenylalanyl-L-arguinine-4-methyl-chromanyl-7-amide) solution and 5 μL of cysteine protease inhibitor solution of several concentrations, 80 μL of cathepsin L enzyme reaction buffer (400 mmol/L acetic acid, 4 mmol/L EDTA, 8 mmol/L DTT were mixed to adjust to pH 5.5) and 10 μL of cathepsin L enzyme solution were mixed and the increase of fluorescence intensity was measured (λ ex (excitation wavelength)=355 nm, λ em (fluorescence wavelength)=460 nm) when reacted at 37° C.
For example, the inhibitory activity of the compound of example 22(4) was 97% at 1 μM.

The results in this text go back to US6809092B2, “Benezene-fused heteroring derivatives and pharmaceutical agents comprising the same as active ingredient” (Ono Pharmaceutical Co., Ltd., priority 2000, dated 2004).

As usually defined, the Ki is the equilibrium dissociation constant of an inhibitor or competing ligand from its target. As usually defined, the inhibition is the percentage by which the read-out fell short of the control. High values mean a strong effect, low ones a weak effect.

The structures appear in SMILES notation.

cathepsin S, sequence (P25774 115-331, species assumed): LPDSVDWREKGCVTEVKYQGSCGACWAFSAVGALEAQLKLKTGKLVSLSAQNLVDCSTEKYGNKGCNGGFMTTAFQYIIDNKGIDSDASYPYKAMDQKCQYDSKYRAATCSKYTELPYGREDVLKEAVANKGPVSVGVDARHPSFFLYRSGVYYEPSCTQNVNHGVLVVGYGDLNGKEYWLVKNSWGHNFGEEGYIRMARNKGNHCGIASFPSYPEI
cathepsin L, sequence (P07711 114-333, species assumed): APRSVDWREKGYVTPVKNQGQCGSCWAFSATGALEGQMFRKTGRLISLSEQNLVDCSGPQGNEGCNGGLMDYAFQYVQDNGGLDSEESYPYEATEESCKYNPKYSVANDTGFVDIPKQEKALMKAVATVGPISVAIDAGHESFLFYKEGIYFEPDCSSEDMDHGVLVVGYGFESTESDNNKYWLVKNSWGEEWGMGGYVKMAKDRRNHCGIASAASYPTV

As to `CC(C)C[C@H](NC(=O)[C@H](CC(C)C)NC(=O)OCc1ccccc1)C(=O)CN1CCCc2ccccc2C1` [3(14), (2S)-N-[(3S)-5-methyl-2-oxo-1-(1,3,4,5-tetrahydro-2H-2-benzazepin-2-yl)-3-hexyl]-4-methyl-2-benzyloxycarbonylamino pentanamide], in assay [1], the Ki came out at 100 nM.

Take `CC(C)C[C@H](NC(=O)[C@@H]1CCCC[C@@H]1NC(=O)c1ccccc1)C(=O)CN1CCCc2ccccc2C1` [example 3]: the Ki in assay [1] is 170 nM.

With `CC(C)C[C@H](NC(=O)[C@@H]1CCCC[C@@H]1NC(=O)c1ccccc1)C(=O)CN1CCCCc2ccccc21` [example 10], in assay [2], the inhibition at 1 µM turned out to be 95%.

`CC(C)CC(NC(=O)[C@H](CC(C)C)NC(=O)OCc1ccccc1)C(=O)CN1CCCc2cc(O)ccc2C1` (stereo partly drawn) [example 18] gave an inhibition at 1 µM in assay [3] of 98%.

Compound `CC(C)C[C@H](NC(=O)[C@H](CC(C)C)NC(=O)OCc1ccccc1)C(=O)CN1CCN(C(C)C)c2ccccc2C1` [example 22(4), (2S)-N-[(3S)-5-methyl-1-(1-isopropyl-2,3,4,5-tetrahydro-1H-1,4-benzodiazepin-4-yl)-2-oxo-3-hexyl]-2-benzyloxycarbonyl amino-4-methylpentanamide] showed an inhibition at 1 µM in assay [4] of 97%.

On to `CC(C)C[C@H](NC(=O)[C@H](CC(C)C)NC(=O)OCc1ccccc1)C(=O)CN1CCSc2ccccc2C1` [example 31, (2S)-N-[(3S)-5-methyl-2-oxo-1-(2,3,4,5-tetrahydro-1,4-benzothiazepin-4-yl)-3-hexyl]-2-benzyloxycarbonylamino-4-methylpentanamide], for which, in assay [1], the Ki stood at 81 nM.
